SMILES strings stand for the structures.

The source of these data is US6969729B2, “Use of isatin derivatives as ion channel activating agents” (Neurosearch A/S, priority 1998, dated 2005).

As to `O=C1Nc2ccc(Br)cc2C1=NO` [Compound 1a, 5-Bromoisatin 3-oxime], the melting point is 250 to 251 °C.
Then `CN1C(=O)C(=NO)c2cc(Cl)c(Cl)cc21` [Compound 1b, 5,6-dichloro-1-methylisatin 3-oxime], with 232 to 236 °C; and `CN1C(=O)C(=NO)c2c1ccc(Cl)c2Cl` [Compound 1d, 4,5-dichloro-1-methylisatin 3-oxime], with 140 to 142 °C; and `CN1C(=O)C(=NO)c2ccc(Cl)c(Cl)c21` [Compound 1j, 6,7-Dichloro-1-methylisatin 3-oxime], with greater than 200 °C.
Then `O=C1Nc2c(ccc(F)c2F)C1=NO` [Compound 1o, 6,7-Difluoroisatin 3-oxime], with 263 to 264 °C; and `Cc1ccc2c(c1C)NC(=O)C2=NO` [Compound 1p, 6,7-Dimethylisatin 3-oxime], with 283 to 284 °C; and `O=C1Nc2cc(Cl)c(Cl)cc2C1=NO` [Compound 1q, 5,6-Dichloroisatin 3-oxime], with 274 to 275 °C.
In turn, `Cc1c(Cl)ccc2c1NC(=O)C2=NO` [Compound 1u, 6-Chloro-7-methylisatin 3-oxime] showed a melting point greater than 300 °C.
In the case of `Cc1c(F)ccc2c1NC(=O)C2=NO` [Compound 1v, 6-Fluoro-7-methylisatin 3-oxime], the melting point was 286 °C (dec.).
Compound `COc1c(F)ccc2c1NC(=O)C2=NO` [Compound 1w, 6-Fluoro-7-methoxyisatin 3-oxime] showed a melting point of 268 to 270 °C.

For orientation: melting point means the temperature of the solid-liquid transition.
